One assay addresses T1, Human σ2/TMEM97 receptor (Homo sapiens, UniProt Q5BJF2).
T1 construct: expressed in transfected cells; host or cells: HEK-293
The assay is described as follows: Binding assay to human σ2/TMEM97 receptor ([3H]-DTG, transfected HEK-293 membranes). The following applies: human σ2/TMEM97, [3H]-DTG 10 nM, binding expressed as Ki, read-out: Binding σ-2. How it is done: Binding Assay to Human ρ2/TMEM97 Receptor
Transfected HEK-293 membranes (15 μg) were incubated with 10 nM [^3H]-1,3-Di-o-tolylguanidine ( DTG) in assay buffer containing Tris-HCl 50 mM at pH 8.0. NSB (non-specific binding) was measured by adding 10 μM haloperidol. The binding of the test compound was measured at either one concentration (% inhibition at 1 or 10 μM) or five different concentrations to determine affinity values (Ki). Plates were incubated at 25° C. for 120 minutes. After the incubation period, the reaction mix was transferred to MultiScreen HTS, FC plates (Millipore), filtered and washed 3 times with ice-cold 10 mM Tris-HCL (pH 8.0). Filters were dried and counted at approximately 40% efficiency in a MicroBeta scintillation counter (Perkin-Elmer) using EcoScint liquid scintillation cocktail.

Another assay addresses T2, Human σ1 Receptor (Homo sapiens, UniProt Q99720).
T2 construct: expressed in transfected cells; host or cells: HEK-293
The assay is described as follows: Human σ1 receptor radioligand assay ([3H](+)-pentazocine, transfected HEK-293 membranes). The following applies: human σ1, [3H](+)-pentazocine 5 nM, binding expressed as Ki, read-out: Binding σ-1. How it is done:
Human σ1 Receptor Radioligand Assay
Transfected HEK-293 membranes (7 μg) were incubated with 5 nM of [^3H](+)-pentazocine in assay buffer containing Tris-HCl 50 mM at pH 8. NBS (non-specific binding) was measured by adding 10 μM haloperidol. The binding of the test compound was measured at either one concentration (% inhibition at 1 or 10 μM) or five different concentrations to determine affinity values (Ki). Plates were incubated at 37° C. for 120 minutes. After the incubation period, the reaction mix was then transferred to MultiScreen HTS, FC plates (Millipore), filtered and plates were washed 3 times with ice-cold 10 mM Tris-HCL (pH 7.4). Filters were dried and counted at approximately 40% efficiency in a MicroBeta scintillation counter (Perkin-Elmer) using EcoScint liquid scintillation cocktail.

Experimental findings from patent publication US20240246966A1, “NEW PYRAZOLO[1,5-a] PYRIMIDINE DERIVATIVES AS SIGMA LIGANDS” (ACONDICIONAMIENTO TARRASENSE, priority 2021, published 2024) are described below.

T2 sequence (Q99720 whole entry): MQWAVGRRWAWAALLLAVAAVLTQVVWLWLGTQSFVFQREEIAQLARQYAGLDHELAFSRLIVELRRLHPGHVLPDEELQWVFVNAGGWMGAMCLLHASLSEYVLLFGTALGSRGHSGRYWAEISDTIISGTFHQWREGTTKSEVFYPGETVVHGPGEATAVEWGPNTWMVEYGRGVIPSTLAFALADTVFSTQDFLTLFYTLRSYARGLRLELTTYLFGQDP
T1 sequence (Q5BJF2 whole entry): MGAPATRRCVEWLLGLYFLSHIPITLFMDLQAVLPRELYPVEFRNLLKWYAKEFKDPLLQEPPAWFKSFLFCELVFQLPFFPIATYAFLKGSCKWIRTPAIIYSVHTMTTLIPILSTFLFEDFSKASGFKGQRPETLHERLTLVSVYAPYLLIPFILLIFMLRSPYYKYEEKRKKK

For `FC(F)(F)c1cc(-c2cnn3cc(CN4CCCC4)cnc23)ccn1` [Example 1, 6-(Pyrrolidin-1-ylmethyl)-3-(2-(trifluoromethyl)pyridin-4-yl)pyrazolo[1,5-a]pyrimidine], the Ki at Human σ2/TMEM97 receptor was over 1000 nM; on Human σ1 Receptor it was under 100 nM.
As for `c1cc(-c2cnn3cc(CN4CCCC4)cnc23)ccn1` [Example 2, 3-(Pyridin-4-yl)-6-(pyrrolidin-1-ylmethyl)pyrazolo[1,5-a]pyrimidine], the results for the Ki at Human σ2/TMEM97 receptor and at Human σ1 Receptor were over 1000 nM and 100 to 500 nM, respectively.
The matching figures for `Fc1cnccc1-c1cnn2cc(CN3CCCC3)cnc12` [Example 3, 3-(3-Fluoropyridin-4-yl)-6-(pyrrolidin-1-ylmethyl)pyrazolo[1,5-a]pyrimidine]: over 1000 nM and under 100 nM.
For `COc1ncccc1-c1cnn2cc(CN3CCCC3)cnc12` [Example 4, 3-(2-Methoxypyridin-3-yl)-6-(pyrrolidin-1-ylmethyl)pyrazolo[1,5-a]pyrimidine], in that order: over 1000 nM and under 100 nM.
For `c1ccc(C2CCN(Cc3cnc4c(-c5ccncc5)cnn4c3)CC2)cc1` [Example 5, 6-((4-Phenylpiperidin-1-yl)methyl)-3-(pyridin-4-yl)pyrazolo[1,5-a]pyrimidine], in that order: over 1000 nM and under 100 nM.
`FC(F)(F)c1cc(-c2cnn3cc(CN4CCC(c5ccccc5)CC4)cnc23)ccn1` [Example 6, 6-((4-Phenylpiperidin-1-yl)methyl)-3-(2-(trifluoromethyl)pyridin-4-yl)pyrazolo[1,5-a]pyrimidine]: the Ki on Human σ2/TMEM97 receptor is 100 to 500 nM; on Human σ1 Receptor, under 100 nM.
In the case of `FC(F)(F)c1cc(-c2cnn3cc(CN4CCC5(CCO5)CC4)cnc23)ccn1` [Example 7, 7-((3-(2-(Trifluoromethyl)pyridin-4-yl)pyrazolo[1,5-a]pyrimidin-6-yl)methyl)-1-oxa-7-azaspiro[3.5]nonane], the Ki on Human σ2/TMEM97 receptor was over 1000 nM; on Human σ1 Receptor, 100 to 500 nM.
For `Fc1cnccc1-c1cnn2cc(CN3CCC4(CCO4)CC3)cnc12` [Example 8, 7-((3-(3-Fluoropyridin-4-yl)pyrazolo[1,5-a]pyrimidin-6-yl)methyl)-1-oxa-7-azaspiro[3.5]nonane], in that order: over 1000 nM and 500 to 1000 nM.
With `FC(F)(F)c1cc(-c2cnn3cc(CN4CCC5(CC4)COC5)cnc23)ccn1` [Example 9, 7-((3-(2-(Trifluoromethyl)pyridin-4-yl)pyrazolo[1,5-a]pyrimidin-6-yl)methyl)-2-oxa-7-azaspiro[3.5]nonane], the Ki is over 1000 nM at Human σ2/TMEM97 receptor and under 100 nM on Human σ1 Receptor.
The matching figures for `FC(F)(F)c1cc(-c2cnn3cc(CN4CCC5(CCOC5)CC4)cnc23)ccn1` [Example 10, 8-((3-(2-(Trifluoromethyl)pyridin-4-yl)pyrazolo[1,5-a]pyrimidin-6-yl)methyl)-2-oxa-8-azaspiro[4.5]decane]: over 1000 nM and under 100 nM.
For the compound `FC1(F)CCN(Cc2cnc3c(-c4ccnc(C(F)(F)F)c4)cnn3c2)CC1` [Example 11, 6-((4,4-Difluoropiperidin-1-yl)methyl)-3-(2-(trifluoromethyl)pyridin-4-yl)pyrazolo[1,5-a]pyrimidine], the values for the Ki at Human σ2/TMEM97 receptor and at Human σ1 Receptor were over 1000 nM and 500 to 1000 nM, respectively.
Regarding `CCN(CC)Cc1cnc2c(-c3ccnc(C(F)(F)F)c3)cnn2c1` [Example 12, N-Ethyl-N-((3-(2-(trifluoromethyl)pyridin-4-yl)pyrazolo[1,5-a]pyrimidin-6-yl)methyl)ethanamine], the Ki at Human σ2/TMEM97 receptor is over 1000 nM; on Human σ1 Receptor it was under 100 nM.
The matching figures for `FC(F)(F)c1ccc(-c2cnn3cc(CN4CCC5(CC4)COC5)cnc23)cn1` [Example 13, 7-((3-(6-(Trifluoromethyl)pyridin-3-yl)pyrazolo[1,5-a]pyrimidin-6-yl)methyl)-2-oxa-7-azaspiro[3.5]nonane]: 500 to 1000 nM and under 100 nM.
As to `FC(F)(F)c1cccc(-c2cnn3cc(CN4CCC5(CC4)COC5)cnc23)n1` [Example 14, 7-((3-(6-(Trifluoromethyl)pyridin-2-yl)pyrazolo[1,5-a]pyrimidin-6-yl)methyl)-2-oxa-7-azaspiro[3.5]nonane], the Ki on Human σ2/TMEM97 receptor was 500 to 1000 nM; on Human σ1 Receptor it was under 100 nM.
With `Cc1cc(-c2cnn3cc(CN4CCC5(CC4)COC5)cnc23)ccn1` [Example 15, 7-((3-(2-Methylpyridin-4-yl)pyrazolo[1,5-a]pyrimidin-6-yl)methyl)-2-oxa-7-azaspiro[3.5]nonane], the Ki is over 1000 nM at Human σ2/TMEM97 receptor and under 100 nM on Human σ1 Receptor.
In the case of `Clc1cc(-c2cnn3cc(CN4CCC5(CC4)COC5)cnc23)ccn1` [Example 16, 7-((3-(2-Chloropyridin-4-yl)pyrazolo[1,5-a]pyrimidin-6-yl)methyl)-2-oxa-7-azaspiro[3.5]nonane], the Ki was over 1000 nM on Human σ2/TMEM97 receptor and under 100 nM on Human σ1 Receptor.
`FC(F)(F)c1ccncc1-c1cnn2cc(CN3CCC4(CC3)COC4)cnc12` [Example 17, 7-((3-(4-(Trifluoromethyl)pyridin-3-yl)pyrazolo[1,5-a]pyrimidin-6-yl)methyl)-2-oxa-7-azaspiro[3.5]nonane]: the Ki on Human σ2/TMEM97 receptor was over 1000 nM; on Human σ1 Receptor, under 100 nM.
Regarding `c1ccc(-c2cnn3cc(CN4CCC5(CC4)COC5)cnc23)nc1` [Example 18, 7-((3-(Pyridin-2-yl)pyrazolo[1,5-a]pyrimidin-6-yl)methyl)-2-oxa-7-azaspiro[3.5]nonane], the Ki at Human σ2/TMEM97 receptor is over 1000 nM; on Human σ1 Receptor, 500 to 1000 nM.
As to `FC(F)(F)c1cnccc1-c1cnn2cc(CN3CCC4(CC3)COC4)cnc12` [Example 19, 7-((3-(3-(Trifluoromethyl)pyridin-4-yl)pyrazolo[1,5-a]pyrimidin-6-yl)methyl)-2-oxa-7-azaspiro[3.5]nonane], the Ki on Human σ2/TMEM97 receptor was over 1000 nM; on Human σ1 Receptor, under 100 nM.
For `Cc1nn2cc(CN3CCC4(CC3)COC4)cnc2c1-c1ccnc(C(F)(F)F)c1` [Example 20, 7-((2-Methyl-3-(2-(trifluoromethyl)pyridin-4-yl)pyrazolo[1,5-a]pyrimidin-6-yl)methyl)-2-oxa-7-azaspiro[3.5]nonane], the figures for the Ki on Human σ2/TMEM97 receptor and at Human σ1 Receptor were 500 to 1000 nM and 100 to 500 nM, respectively.
The matching figures for `COC1CCN(Cc2cnc3c(-c4ccc(C(F)(F)F)nc4)cnn3c2)CC1` [Example 21, 6-((4-Methoxypiperidin-1-yl)methyl)-3-(6-(trifluoromethyl)pyridin-3-yl)pyrazolo[1,5-a]pyrimidine]: over 1000 nM and under 100 nM.
On to `FC(F)(F)c1ccc(-c2cnn3cc(CN4CC5(CCOCC5)C4)cnc23)cn1` [Example 22, 2-((3-(6-(Trifluoromethyl)pyridin-3-yl)pyrazolo[1,5-a]pyrimidin-6-yl)methyl)-7-oxa-2-azaspiro[3.5]nonane], for which the Ki is over 1000 nM on Human σ2/TMEM97 receptor and under 100 nM at Human σ1 Receptor.
`COC1CCN(Cc2cnc3c(-c4ccnc(C)c4)cnn3c2)CC1` [Example 23, 6-((4-Methoxypiperidin-1-yl)methyl)-3-(2-methylpyridin-4-yl)pyrazolo[1,5-a]pyrimidine]: the Ki is over 1000 nM at Human σ2/TMEM97 receptor and 100 to 500 nM at Human σ1 Receptor.
Consider `Cc1cc(-c2cnn3cc(CN4CCCOCC4)cnc23)ccn1` [Example 24, 4-((3-(2-Methylpyridin-4-yl)pyrazolo[1,5-a]pyrimidin-6-yl)methyl)-1,4-oxazepane], for which the Ki on Human σ2/TMEM97 receptor is over 1000 nM; on Human σ1 Receptor it was 100 to 500 nM.
